Data published in US20250154250A1, “CEACAM5 ADC-ANTI-PD1/PD-L1 COMBINATION THERAPY” (SANOFI, priority 2021, published 2025).
Like-named read-outs stand apart in the source and are kept apart here.

What was measured:
[1] = tested on: subcutaneous colon MC38 syngeneic tumor; experiment: subcutaneous colon MC38 syngeneic tumor model; settings: for Drug death (day) / Mean body weight change in % at nadir (day) / Regression CR / Regression PR: n=6; for tolerability of treatments: doses lower than maximal tolerated dose (MTD)
Method: […] Control groups were left untreated. The doses of the compounds used are given in mg/kg.
For the evaluation of anti-tumor activity, animals were weighed, and tumors were measured by caliper 2 times weekly. A dosage producing a 20% weight loss at nadir (mean of group) or 10% or more drug deaths, was considered an excessively toxic dosage. Animal body weights included the tumor weights. Tumor volumes were calculated using the formula mass (mm^3)=[length (mm)×width (mm)×width (mm)]/2. The primary efficacy end points are ΔT/ΔC, percent median regression, partial and complete regressions (PR and CR).
Changes in tumor volume for each treated (T) and control (C) are calculated for each tumor by subtracting the tumor volume on the day of first treatment (staging day) from the tumor volume on the specified observation day. The median ΔT is calculated for the treated group and the median ΔC is calculated for the control group. Then the ratio ΔT/ΔC is calculated and expressed as a percentage: ΔT/ΔC=(delta T/delta C)×100.
The dose is considered as therapeutically active when ΔT/ΔC is lower than 40% and very active when ΔT/ΔC is lower than 10%.
% tumor regression is defined as the % of tumor volume decrease in the treated group at a specified observation day compared to its volume on the first day of first treatment.
At a specific time point and for each animal, % regression is calculated. The median % regression is then calculated for the group:
Partial regression (PR): Regressions are defined as partial if the tumor volume decreases to 50% of the tumor volume at the start of treatment.
Complete regression (CR): Complete regression is achieved when tumor volume=0 mm^3 (CR is considered when tumor volume cannot be recorded).
Control groups were left untreated. The doses of the compounds used are given in mg/kg.
See above (Ex 2) for the conditions of anti-tumor activity and toxicity evaluation.

CEACAM7 = CEACAM7 (Homo sapiens, UniProt Q14002)
[2] = tested on: human primary colon and stomach tumors; settings: mice bearing human primary colon and stomach tumors; see WO 2014/079886; cited from earlier work
CEACAM6 = CEACAM6 (Homo sapiens, UniProt P40199)
CEACAM1 = CEACAM1 (Homo sapiens, UniProt P13688)
[3] = tested on: NSQ NSCLC with tumor CEACAM5 expression
CEACAM8 = CEACAM8 (Homo sapiens, UniProt P31997)
[4] = antibody as single agent 10 mg/kg IV (total 40)
[5] = huMAb2-3-SPDB-DM4 15 mg/kg IV day 10, alone or + antibody 10 mg/kg IV
[6] = huMAb2-3-SPDB-DM4 25 mg/kg IV day 10, alone or + antibody 10 mg/kg IV

Chain of CEACAM8 (P31997 35-320): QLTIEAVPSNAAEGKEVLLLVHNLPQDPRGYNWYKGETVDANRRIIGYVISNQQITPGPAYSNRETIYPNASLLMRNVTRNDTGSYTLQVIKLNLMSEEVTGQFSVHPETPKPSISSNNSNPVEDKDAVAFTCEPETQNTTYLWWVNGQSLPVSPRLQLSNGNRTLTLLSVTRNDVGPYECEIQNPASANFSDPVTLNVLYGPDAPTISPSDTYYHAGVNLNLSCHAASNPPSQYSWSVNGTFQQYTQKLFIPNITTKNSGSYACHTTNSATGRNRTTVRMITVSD
Chain of CEACAM1 (P13688 35-526): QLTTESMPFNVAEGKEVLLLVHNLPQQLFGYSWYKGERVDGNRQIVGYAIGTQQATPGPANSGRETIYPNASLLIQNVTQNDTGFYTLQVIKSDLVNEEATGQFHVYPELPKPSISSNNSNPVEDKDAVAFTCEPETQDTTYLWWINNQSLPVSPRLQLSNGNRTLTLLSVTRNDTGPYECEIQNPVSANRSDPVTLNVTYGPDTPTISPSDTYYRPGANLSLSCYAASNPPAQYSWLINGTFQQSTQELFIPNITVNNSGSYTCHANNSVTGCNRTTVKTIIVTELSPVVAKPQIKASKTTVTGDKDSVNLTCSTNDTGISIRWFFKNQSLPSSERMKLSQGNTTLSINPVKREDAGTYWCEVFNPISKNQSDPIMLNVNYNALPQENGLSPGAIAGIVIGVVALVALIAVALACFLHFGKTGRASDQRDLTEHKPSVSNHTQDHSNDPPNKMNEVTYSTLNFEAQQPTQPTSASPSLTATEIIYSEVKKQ
Chain of CEACAM6 (P40199 35-320): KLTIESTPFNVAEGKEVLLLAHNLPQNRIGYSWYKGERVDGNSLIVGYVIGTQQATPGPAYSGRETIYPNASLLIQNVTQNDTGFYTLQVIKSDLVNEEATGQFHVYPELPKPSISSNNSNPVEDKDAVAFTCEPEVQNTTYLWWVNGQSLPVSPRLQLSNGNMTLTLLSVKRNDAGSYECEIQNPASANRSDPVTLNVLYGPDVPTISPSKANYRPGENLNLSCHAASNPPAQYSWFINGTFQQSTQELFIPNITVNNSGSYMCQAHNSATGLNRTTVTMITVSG
Chain of CEACAM7 (Q14002 36-242): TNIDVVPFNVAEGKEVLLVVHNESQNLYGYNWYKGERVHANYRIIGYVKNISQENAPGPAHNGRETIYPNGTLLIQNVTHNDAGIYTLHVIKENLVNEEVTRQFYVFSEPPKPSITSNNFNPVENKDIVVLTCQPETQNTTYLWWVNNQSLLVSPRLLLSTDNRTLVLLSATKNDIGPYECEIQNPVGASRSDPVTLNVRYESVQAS

For “Atezolizumab [anti-mu/huPD-L1 (Atezolizumab), reference compound]”, the Biological comments [1, 4] was “Marginally”, the Biological comments ([1]; antibody as single agent 10 mg/kg IV (total 40), listed as anti-mu/PD-L1 mAb) was “marginally active” and the “Drug death (day)” value [1, 4] was 0/6. The “Mean body weight change in % at nadir (day)” value (“Mean body weight change in %” below) [1, 4] was “+2.08%”, the “Regression CR” value [1, 4] was 1/6 and the “Regression PR” value [1, 4] was 1/6. For the same substance, the tolerability of treatments [1] was “well tolerated and did not induce toxicity”.
In the case of tusamitamab ravtansine, the “recognition of CEACAM7” value (CEACAM7) is listed as “does not recognize”, the “tumor growth in vivo” value [2] is listed as “markedly inhibit tumor growth” and the “recognition of CEACAM6” value (CEACAM6) is listed as “does not recognize”. For the same substance, the “recognition of CEACAM1” value (CEACAM1) was “does not recognize”, the tolerability of treatments [1] was “well tolerated and did not induce toxicity” and the Biological comments [1, 5] was “Inactive”. The “Median ΔT/ΔC in % (D 22)” value [1, 5] was 46%, the “Drug death (day)” value [1, 5] was 0/6 and the “Mean body weight change in %” value [1, 5] was “+3.95%”. The “Regression CR” value [1, 5] was 0/6, the “Regression PR” value [1, 5] was 0/6 and the Biological comments [1, 6] was “highly active”. For the same substance, the “Median ΔT/ΔC in % (D 22)” value [1, 6] was under 0%, the “Drug death (day)” value [1, 6] was 0/6 and the “Mean body weight change in %” value [1, 6] was “+1.30%”. For the same substance, the “Regression CR” value [1, 6] was 1/6, the “Regression PR” value [1, 6] was 4/6 and the “overall response rate per RECIST 1.1” value ([3]; 28 heavily pre-treated patients, tumor CEACAM5 expression ≥1% and <5 0%) was 7.1%. For the same substance, the “overall response rate per RECIST 1.1” value ([3]; 64 heavily pre-treated patients, tumor CEACAM5 expression ≥50%) was 20.3% and the “recognition of CEACAM8” value (CEACAM8) was “does not recognize”.
